# Data taken from patent publication US9370508B2, “Imidazoquinolines as dual lipid kinase and mTOR inhibitors” (NOVARTIS AG, priority 2007, dated 2016).
# Experiments:
# [1] = system: ribosomal protein S6 phosphorylation; assay: 96-well in-cell western assay of ribosomal protein S6 phosphorylation in HeLa cells; format: cell-based; settings: Homo sapiens, 1 h, 60 min stimulation with nutrients in the presence or absence of 100 nM insulin, anti-phospho(Ser235-236)S6, read-out: induced phosphorylation of S6, mean IC50
# Method: A 96-well “in-cell western” assay is used to quantitate the levels of ribosomal protein S6 phosphorylation following treatment of HeLa cells with compounds. HeLa cells are seeded on to 96-wells plates (5000 cells/well), cultured for 72 h prior to serum deprivation for 18 h, in a humidified environment of 5% CO2 at 37° C. throughout. Thereafter, they are incubated in 200 μL of starve-medium for 180 min prior to a 60 min stimulation with 200 μL of test-medium. All solutions are pre-warmed for 30 min; the 96-well plates are sealed (Millipore) and incubated in a non-CO2 incubator at 37° C. during the starvation and stimulation protocol. […] After a 48 h blocking step in Tris buffered saline pH=7.2 containing 0.1% Triton-X100 and 0.1% bovine serum albumin, at 4° C., fixed cells are incubated overnight at 4° C. with the anti-phospho(Ser235-236)S6 primary antibody (Cell Signaling Technologies #2211 [can be substituted with Cell Signaling Technologies #2215 to quantitate S6 phosphorylation at Ser240-244]; 50 μL at 1:300 in blocking-solution), washed (8×200 μL TBS) before 100 μL of europium-labeled anti-rabbit secondary antibody (Perkin-Elmer; 2.4 μg/mL) is added for 90 min at room temperature in the dark. After a final wash (8×200 μL TBS), 100 μL of Delphia™ Enhancement-solution is added to each well and the fluorescence quantified 120 min later using an Envision 2101 (Perkin-Elmer). […]
# mTOR enzyme = biological target: T1, mTOR enzyme (Homo sapiens, UniProt P42345); assay: K-LISA mTOR activity kit biochemical assay; settings: GST-S6K1 substrate, 100 μM ATP, 30 minutes at 30° C., anti-phospho Thr389 detection; read-out: mTOR kinase activity, mean IC50
# T1 construct: purchased Calbiochem CBA055
# Method: This mixture is then transferred to a glutathione-coated 96-well plate pre-incubated with GST-S6K1 recombinant protein. Kinase reactions are initiated by adding kinase buffer containing 100 μM ATP and are incubated for 30 minutes at 30° C. mTOR activity is quantitated using an anti-phospho Thr389-HRP conjugate detection system. Wortmannin served as control compound for the mTOR kinase activity assay.
Compound,IC50 [1] [nM],IC50 (mTOR enzyme) [nM]
"Cn1c(=O)n(-c2ccc(C(C)(C)C#N)cc2)c2c3cc(-c4cnc5ccccc5c4)ccc3ncc21 [compound 1, 2-Methyl-2-[4-(3-methyl-2-oxo-8-quinolin-3-yl-2,3-dihydro-imidazo[4,5-c]quinolin-1-yl)-phenyl]-propionitrile]",17,
"COc1ccc(-c2ccc3ncc4c(c3c2)n(-c2ccc(N3CCNCC3)c(C(F)(F)F)c2)c(=O)n4C)cn1 [compound 2, 8-(6-Methoxy-pyridin-3-yl)-3-methyl-1-(4-piperazin-1-yl-3-trifluoromethyl-phenyl)-1,3-dihydro-imidazo[4,5-c]quinolin-2-one]",11,1.4
